This test deals with T1, GPR3 (Homo sapiens, UniProt P46089, INS231ASEIGTGFPFDPHYVEVLGERMHYVDVGPRDGTPVLFLHGNPTSSYVWRNIIPHVAPTHRCIAPDLIGMGKSDKPDLGYFFDDHVRFMDAFIEALGLEEVVLVIHDWGSALGFHWAKRNPERVKGIAFMEFIRPIPTWDEWPEFARETFQAFRTTDVGRKLIIDQNVFIEGTLPMGVVRPLTEVEMDHYREPFLNPVDREPLWRFPNELPIAGEPANIVALVEEYMDWLHQSPVPKLLFWGTPGVLIPPAEAARLAKSLPNCKAVDIGPGLNLLQEDNPDLIGSEIARWLSTLEISGGS).
T1 construct: ligated to the full-length C-terminus; expressed in transfected cells; some experiments transient
The test can be described thus: BRET-based conformational GPR3 biosensor (GPR3-HaloTag/Nluc) in HEK293A cells. The class given is cell-based. The following applies: for EC50: HEK293A cells stably expressing the biosensor, read-out: EC50 at GPR3-HaloTag/Nluc. The text has this:
To develop a conformational GPR3 biosensor that can be used in a microtiter well plate format, we employed the intramolecular BRET design previously validated for several GPCRs. − The BRET donor NanoLuc was fused to the receptor’s full-length C-terminus and the self-labeling protein tag, HaloTag, was inserted into GPR3′s third intracellular loop between amino acids Arg231 and His232 (Figure a; sequence in Figure S1). […]
Plasmids and molecular cloning […]
Plasmids encoding the conformational biosensors α2AAR- and β2AR-HaloTag/Nluc9 and the Gs heterotrimer dissociation sensor10 were previously described. The expression plasmid encoding N-terminally HA-tagged GPR3 (cat. no.
#GPR003TN00) on a pcDNA3.1+ vector was obtained from the cDNA resource center (cdna.org). The Nluc and HaloTag in-serts were amplified with overhanging restriction sites from β2AAR- HaloTag/Nluc and ligated to the full-length C-terminus or inserted into icl3 of GPR3, respectively, to obtain the conformational biosensor GPR3-HaloTag/Nluc. Point mutants of GPR3-HaloTag/Nluc were generated using the GeneArt Site-directed Mutagenesis System (Thermo Fisher Scientific). All con-structs were verified by sequencing (Eurofins genomics). […]
serum albumin (BSA) were obtained from Sigma Aldrich (Merck KGaA). Dulbecco's Modified Eagle's Medium (DMEM), Dul- […]
Diphenyleneiodonium chloride (DPI) and AF64394 were purchased from Tocris (Bio -Techne). The TMB (3, 3', 5, 5' tetramethyl benzidine) substrate reagent set was […]
were obtained in a single kit from Promega (cat. no. N1662). D-luciferin-sodium and the S1PR1 agonist III were from Med-ChemExpress. The Rluc substrate coelenterazine 400a was from NanoLight Technology (cat. no. 340 -10). White -wall, white - bottomed 96 -well, black -wall, black bottomed and transparent 96 -well microtiter plates were from Brand.
HEK293A cells were used for transient transfection and grown in Dulbecco’s modified Eagle’s medium (DMEM) supplemented with 2 mM glutamine, 10 % fetal calf serum, streptomycin (0.1 mg/mL), and penicillin (100 U/mL) at 37 °C with 5 % CO2. For the generation of stable GPR3 -HaloTag/Nluc cells, HEK293A cells grown in T75 flasks were transfected at a confluence of 40 – […]
Absence of mycoplasma contamination was routinely
Transient transfection and plating
Resuspended cells (300,000 cells/mL) were transfected in suspension with a total of 1 μg DNA/mL suspension using PEI (1 mg/ml stock solution; 3 μL PEI solution per μg DNA). […]
Cells mixed with the transfection reagents were seeded onto poly-D-lysine–precoated, 96-well plates and grown for 48 h at 37 °C with 5 % CO2. Stable α2AAR-, β2AR- or GPR3-HaloTag/Nluc expressing cells were seeded 24 h before the experi-ment at a density of 800,000 cells/mL into white 96-well plates. To monitor changes in BRET in with conformational GPCR […]
experiment. White plates were used for BRET and luminescence measurements, black plates for FRET experiments and trans-parent plates for absorbance-based quantification of receptor surface expression levels.

The record followed here is publication PMC13195669, “GPR3 Ligands Discovered through Combined Virtual and Conformational Biosensor-Based Screening” (Journal of the American Chemical Society, 2026).

T1 sequence (P46089 with tags, fused parts or gaps with the stated changes): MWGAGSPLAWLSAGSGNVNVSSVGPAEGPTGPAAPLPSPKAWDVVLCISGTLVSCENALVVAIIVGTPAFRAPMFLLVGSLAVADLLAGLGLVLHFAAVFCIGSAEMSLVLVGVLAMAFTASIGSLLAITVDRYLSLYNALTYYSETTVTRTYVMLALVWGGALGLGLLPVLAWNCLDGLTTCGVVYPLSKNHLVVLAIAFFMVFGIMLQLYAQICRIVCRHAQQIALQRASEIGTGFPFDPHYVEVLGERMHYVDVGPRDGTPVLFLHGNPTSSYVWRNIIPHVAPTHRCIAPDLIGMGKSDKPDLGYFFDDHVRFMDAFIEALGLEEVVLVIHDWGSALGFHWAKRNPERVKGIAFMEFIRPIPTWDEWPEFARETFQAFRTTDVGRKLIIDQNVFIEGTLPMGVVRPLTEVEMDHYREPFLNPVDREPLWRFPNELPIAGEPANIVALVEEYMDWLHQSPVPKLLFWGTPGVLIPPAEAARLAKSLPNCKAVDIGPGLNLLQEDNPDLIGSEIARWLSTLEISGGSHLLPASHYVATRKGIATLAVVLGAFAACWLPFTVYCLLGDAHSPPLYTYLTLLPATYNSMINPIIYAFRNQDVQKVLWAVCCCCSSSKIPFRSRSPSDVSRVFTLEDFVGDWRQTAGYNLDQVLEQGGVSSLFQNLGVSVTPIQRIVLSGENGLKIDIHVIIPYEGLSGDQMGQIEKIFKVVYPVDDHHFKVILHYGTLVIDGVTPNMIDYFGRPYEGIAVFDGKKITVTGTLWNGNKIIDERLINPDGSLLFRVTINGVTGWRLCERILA

Take `N=c1n(Cc2ccccc2)c2ccccc2n1CC1CC1` [compound 33]: the EC50 was 5 µM. Further, the “effect of preincubation on OEA and oleamide potency in GPR3 conformation assay” value (30 µM preincubation) is “reduced potency of OEA, but not oleamide”.
On to `N=c1n(Cc2ccccc2)c2ccccc2n1CC(O)COc1ccc(Cl)cc1` (stereo not shown) [compound 52], for which the EC50 stood at 25 µM.
The same measure, in the same setting: as for `Cc1ccc(NC(=O)CN2CCN(C(=O)CCc3ccc(Cl)cc3)CC2)cc1` [compound 115], the figure is 85 µM.
